Measurements published in patent US8815919B2, “Oxadiazole derivatives” (Merck Serono SA, priority 2009, dated 2014).
Counter-ions that a name gives are not always drawn. Like-named read-outs stand apart in the source and are kept apart here.

What was measured:
S1P1 [1] = target: T1, S1P1 (Homo sapiens, UniProt P21453); assay: Receptor binding assay, [33P]sphingosine 1-phosphate competition, S1P1 membranes, WGA SPA beads
Description: (§1) Membranes were prepared from CHO cells expressing S1P1 or S1P3 for use in ligand and […] binding studies. Cells were suspended in 50 mM TRIS, pH 7.4, 2 mM EDTA, 250 mM Sucrose (buffer A) and 1× Complete protease inhibitor cocktail (Roche), and disrupted at 4° C. by N2 decompression using a cell disruption bomb (Parr Instrument). Following centrifugation at 1000 RPM for 10 min at 4° C., the supernatant was diluted (2×) in buffer A and centrifuged again at 19000 RPM for 75 min at 4° C. The pellet was then suspended in 10 mM HEPES, pH 7.4, 1 mM EDTA, 250 mM Sucrose (Buffer B), and 1× Complete EDTA-free protease inhibitor cocktail and homogenized using a potter. Membranes were flash frozen in liquid N2 and stored at −80° C.
(§2) Receptor binding assay: [33P]sphingosine 1-phosphate (3000 Ci/mmol; American Radiolabeled Chemicals, Inc.) was added to test compounds in 20% DMSO by competition. Membranes and WGA SPA beads (GE Healthcare) were added to give a final volume of 100 μl in 96-well plates or 50 μl in 384-well plates with assay concentrations of […] [33P]sphingosine 1-phosphate (respectively for S1P1 or S1P3), 50 mM HEPES, pH 7.5, 5 mM MgCl2, 100 mM NaCl, 0.4% fatty acid-free BSA, 1-5 μg/well of proteins in 96-well plates vs 0.6-1 μg/well of proteins in 384-well plates and 100 μg/well of WGA SPA beads in 96-well plates vs 75 μg/well of WGA SPA beads in 384-well plates. Binding was performed for 60 min at RT on a shaker and bound radioactivity was measured on a PerkinElmer 1450 MicroBeta counter. Triplicate samples were averaged and normalized as percentage of inhibition relative to total binding (only DMSO in well) and nonspecific binding (1000-fold excess of unlabeled S1P). Binding data were analyzed using the GraphPad Prism program or Genedata software.
Target sequence in this assay (P21453 whole entry, species assumed): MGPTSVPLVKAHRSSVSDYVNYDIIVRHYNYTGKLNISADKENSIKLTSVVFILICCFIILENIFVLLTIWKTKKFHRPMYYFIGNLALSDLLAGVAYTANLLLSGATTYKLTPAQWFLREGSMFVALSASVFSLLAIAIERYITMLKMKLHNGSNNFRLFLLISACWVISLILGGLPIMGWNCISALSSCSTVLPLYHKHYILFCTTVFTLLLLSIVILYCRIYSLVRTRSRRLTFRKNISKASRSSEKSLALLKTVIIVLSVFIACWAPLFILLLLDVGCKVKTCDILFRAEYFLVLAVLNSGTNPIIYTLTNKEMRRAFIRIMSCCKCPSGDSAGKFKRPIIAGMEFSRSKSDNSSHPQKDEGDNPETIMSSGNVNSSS

S1P3 = S1P3 (Homo sapiens, UniProt Q99500); assay: Receptor binding assay, [33P]sphingosine 1-phosphate competition, S1P3 membranes, WGA SPA beads
Description: as §1, §2

S1P1 [2] = target: T1, S1P1; assay: S1P1 internalization assay in S1P1-U2OS cells (S1P1-EGFP), cell imaging; assay type: cell-based; set-up: host or cells: U2OS (human bone osteosarcoma epithelial cells), CMV promoter, geneticin selection; details: 1 hour incubation
Description: Cellular functional assays: Internalization of Sphingosine-1-phosphate receptor 1 (S1P1) in a human Cell line (U2OS) in a 384-well format using a Cell Imaging analysis. • Jo, E.; Sanna, M. G.; Gonzalez-Cabrera, P. J.; Thangada, S.; Tigyi, S.; Osborne, D. A.; Hla, T.; Parrill, A. L.; Rosen, H. Chem. Biol. 2005, 12, 703
The S1P1 internalization assay was performed in 384 well plates (Corning® 384 black with clear bottom 3712) using S1P1-U2OS cells from Biolmage (C039A), a human epithelial cell line (Human Bone Osteosarcoma Epithelial Cells). These cells expressed the human S1P1 Receptor fused to the green fluorescent protein (EGFP). A standard CMV promoter (cytomegalovirus promoter) controls the expression of S1P1-EGFP and continuous expression was maintained by addition of geneticin to the culture medium.
S1P1 Receptor desensitization induced the internalization of the membrane-localized S1P1-EGFP fusion protein to endosomes, which can be monitored by cell imaging analysis. The cells are plated in low serum medium (Dulbecco's Modified Eagle Medium (DMEM) with Glutamax-1 and high glucose, 1% Penicillin/Streptomycin, 1% Fetal Calf Serum (FCS), 0.5 mg/ml Geneticin) overnight.
The next day, S1P1-U2OS cells are incubated in 20 μl serum free medium (DMEM with Glutamax-1 and high glucose, 0.1% of fatty-acid free Bovin Serum Albumin (BSA), 10 mM, N′-2-Hydroxyethylpiperazine-N′-2 ethanesulphonic acid (HEPES) 1M) for 2 hours at 37° C./5% CO2. The cells are then treated with 4 μl compounds/agonists (6×/3% DMSO) for a total volume of 24 μl, and plates are incubated for 1 hour at 37° C./5% CO2.
S1P1-U2OS cells are fixed with 25 μl Paraformaldehyde 8% and stained with Hoechst 33345 dye (1:1000) for 20 minutes.
They were then washed 3 times with Phosphate Buffered Saline (PBS) and plates are sealed. The internalization of the receptor S1P1-EGFP is measured on Cellomics by calculating the “spot count per object” (“object” corresponds to nuclear and “spot” corresponds to S1P1-EGFP receptor). Internalization data were observed thanks to vHCS View and analyzed using Genedata® software.
Target sequence in this assay (P21453 whole entry): as the sequence (P21453 whole entry, species assumed) above

[3] = 96 well-plate, read-out: S1P1 binding Ki (M) (96 well-plate)
[4] = 384 well-plate, read-out: S1P1 binding Ki (M) (384 well-plate)
[5] = 96 well-plate, read-out: S1P3 binding Ki (M) (96 well-plate)
[6] = 384 well-plate, read-out: S1P3 binding Ki (M) (384 well-plate)

Chain of S1P3 (Q99500 whole entry, species assumed): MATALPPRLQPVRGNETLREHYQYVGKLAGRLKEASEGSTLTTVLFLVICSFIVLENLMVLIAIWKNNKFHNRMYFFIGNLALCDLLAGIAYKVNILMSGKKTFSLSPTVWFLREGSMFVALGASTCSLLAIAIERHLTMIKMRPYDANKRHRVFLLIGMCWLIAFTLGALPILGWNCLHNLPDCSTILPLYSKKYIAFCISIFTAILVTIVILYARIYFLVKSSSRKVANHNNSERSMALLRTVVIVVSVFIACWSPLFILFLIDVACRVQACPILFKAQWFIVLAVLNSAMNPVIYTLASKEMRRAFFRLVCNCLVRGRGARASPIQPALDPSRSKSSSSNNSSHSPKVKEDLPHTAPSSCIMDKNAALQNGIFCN

SMILES | Ki (S1P1 [1]; [3]) | Ki (S1P1 [1]; [4]) | Ki (S1P3; [5]) | Ki (S1P3; [6]) | EC50 (S1P1 [2])
Cc1ccccc1-c1ccc(-c2nc(-c3cccc(COCC(=O)O)c3)no2)cc1C(F)(F)F [Example 48, [(3-{5-[2′-methyl-2-(trifluoromethyl)biphenyl-4-yl]-1,2,4-oxadiazol-3-yl}benzyl)oxy]acetic acid] | 9.79e-10 M | 1.97e-09 M | 6.03e-07 M | 1.08e-06 M | 7.12 nM
COCc1cc(-c2nc(-c3ccc(CN(C)CC(=O)O)cc3)no2)ccc1-c1ccccc1C [Example 51, N-(4-{5-[2-(methoxymethyl)-2′-methylbiphenyl-4-yl]-1,2,4-oxadiazol-3-yl}benzyl)-N-methylglycine, hydrochloride salt] | 3.38e-10 M | 2.1e-09 M | 7.32e-07 M | 9.17e-07 M | 4.92 nM
COCc1cc(-c2nc(-c3ccc(CN(C)CC(=O)O)c(F)c3)no2)ccc1-c1ccccc1C [Example 52, N-(2-fluoro-4-{5-[2-(methoxymethyl)-2′-methylbiphenyl-4-yl]-1,2,4-oxadiazol-3-yl}benzyl)-N-methylglycine, hydrochloride salt] | 1.96e-10 M | – | 1.27e-07 M | – | 2.52 nM
COCc1cc(-c2nc(-c3ccc(CN(C)CC(=O)O)c(Br)c3)no2)ccc1-c1ccccc1C [Example 53, N-(2-bromo-4-{5-[2-(methoxymethyl)-2′-methylbiphenyl-4-yl]-1,2,4-oxadiazol-3-yl}benzyl)-N-methylglycine, hydrochloride salt] | 2.14e-10 M | – | 7e-07 M | – | 7.61 nM
COCc1cc(-c2nc(-c3ccc(CN(C)CC(=O)O)cc3)no2)ccc1-c1ccccc1F [Example 54, N-(4-{5-[2′-fluoro-2-(methoxymethyl)biphenyl-4-yl]-1,2,4-oxadiazol-3-yl}benzyl)-N-methylglycine, hydrochloride salt] | 3.04e-10 M | 9.76e-10 M | 3.21e-07 M | 2.59e-07 M | 6.36 nM
COCc1cc(-c2nc(-c3ccc(CN(C)CC(=O)O)c(F)c3)no2)ccc1-c1ccccc1F [Example 55, N-(2-fluoro-4-{5-[2′-fluoro-2-(methoxymethyl)biphenyl-4-yl]-1,2,4-oxadiazol-3-yl}benzyl)-N-methylglycine, hydrochloride salt] | 1.59e-10 M | 5.23e-10 M | 7.12e-08 M | 9.2e-08 M | 8.46 nM
CC1CCCCN1c1ccc(-c2nc(-c3cc(F)cc(CN(C)CC(=O)O)c3)no2)cc1C(F)(F)F (stereo not drawn) [Example 56, N-(3-fluoro-5-{5-[4-(2-methylpiperidin-1-yl)-3-(trifluoromethyl)phenyl]-1,2,4-oxadiazol-3-yl}benzyl)-N-methylglycine, hydrochloride salt] | 3.25e-10 M | – | 3.79e-08 M | – | 20.2 nM
COCc1cc(-c2nc(-c3cc(F)cc(CN(C)CC(=O)O)c3)no2)ccc1-c1ccccc1F [Example 57, N-(3-fluoro-5-{5-[2′-fluoro-2-(methoxymethyl)biphenyl-4-yl]-1,2,4-oxadiazol-3-yl}benzyl)-N-methylglycine, hydrochloride salt] | 1.14e-10 M | – | 7.22e-09 M | – | 8.46 nM
COCc1cc(-c2nc(-c3cccc(CN(CC(=O)O)C(C)C)c3)no2)ccc1-c1ccccc1C [Example 58, N-isopropyl-N-(3-{5-[2-(methoxymethyl)-2′-methylbiphenyl-4-yl]-1,2,4-oxadiazol-3-yl}benzyl)glycine, hydrochloride salt] | 3.91e-10 M | – | 2.02e-07 M | – | 7.87 nM
COCc1cc(-c2nc(-c3cccc(CN(CC(=O)O)CC(C)C)c3)no2)ccc1-c1ccccc1C [Example 59, N-isobutyl-N-(3-{5-[2-(methoxymethyl)-2′-methylbiphenyl-4-yl]-1,2,4-oxadiazol-3-yl}benzyl)glycine, hydrochloride salt] | 1.1e-09 M | 7.94e-09 M | – | 8.49e-07 M | 74.5 nM
COCc1cc(-c2nc(-c3ccc(CNCC(=O)O)cc3)no2)ccc1-c1ccccc1C [Example 60, N-(4-{5-[2-(methoxymethyl)-2′-methylbiphenyl-4-yl]-1,2,4-oxadiazol-3-yl}benzyl)glycine, hydrochloride salt] | 3.09e-10 M | – | 1.93e-07 M | – | 1.78 nM
COCc1cc(-c2nc(-c3ccc(CNCC(=O)O)cc3)no2)ccc1-c1ccccc1F [Example 61, N-(4-{5-[2′-fluoro-2-(methoxymethyl)biphenyl-4-yl]-1,2,4-oxadiazol-3-yl}benzyl)glycine, hydrochloride salt] | 2.26e-10 M | – | 1.91e-07 M | – | 3.36 nM
CCN(CCC(=O)O)Cc1cccc(-c2noc(-c3ccc(-c4ccccc4F)c(COC)c3)n2)c1 [Example 62, N-ethyl-N-(3-{5-[2′-fluoro-2-(methoxymethyl)biphenyl-4-yl]-1,2,4-oxadiazol-3-yl}benzyl)-beta-alanine, hydrochloride salt] | 1.68e-10 M | – | 1.72e-08 M | – | 2.91 nM
CCN(CCC(=O)O)Cc1cccc(-c2noc(-c3ccc(-c4ccccc4C)c(COC)c3)n2)c1 [Example 63, N-ethyl-N-(3-{5-[2-(methoxymethyl)-2′-methylbiphenyl-4-yl]-1,2,4-oxadiazol-3-yl}benzyl)-beta-alanine, hydrochloride salt] | 1.61e-10 M | – | 3.98e-08 M | 1.25e-07 M | 3.38 nM
COCc1cc(-c2nc(-c3cccc(CN(C)CC(=O)O)c3)no2)ccc1-c1cc(F)ccc1Cl [Example 65, N-(3-{5-[2′-chloro-5′-fluoro-2-(methoxymethyl)biphenyl-4-yl]-1,2,4-oxadiazol-3-yl}benzyl)-N-methylglycine, hydrochloride salt] | 5.31e-10 M | – | 2.31e-07 M | 3.68e-07 M | 21.8 nM
COCc1cc(-c2nc(-c3cccc(CN(CCO)CCC(=O)O)c3)no2)ccc1-c1ccccc1C [Example 66, N-(2-hydroxyethyl)-N-(3-{5-[2-(methoxymethyl)-2′-methylbiphenyl-4-yl]-1,2,4-oxadiazol-3-yl}benzyl)-beta-alanine, hydrochloride salt] | 5.36e-10 M | 2.42e-09 M | – | 1.4e-06 M | 44.9 nM
COCc1cc(-c2nc(-c3ccc(CN(C)CCC(=O)O)c(F)c3)no2)ccc1-c1ccccc1C [Example 73, N-(2-fluoro-4-{5-[2-(methoxymethyl)-2′-methylbiphenyl-4-yl]-1,2,4-oxadiazol-3-yl}benzyl)-N-methyl-beta-alanine, hydrochloride salt] | 1.07e-10 M | – | 4.95e-08 M | – | 1.27 nM
COCc1cc(-c2nc(-c3ccc(CN(C)CCC(=O)O)cc3)no2)ccc1-c1ccccc1C [Example 74, N-(4-{5-[2-(methoxymethyl)-2′-methylbiphenyl-4-yl]-1,2,4-oxadiazol-3-yl}benzyl)-N-methyl-beta-alanine, hydrochloride salt] | 2.01e-10 M | – | 1.08e-07 M | – | 1.46 nM
